{"source": "paper PMC11519575", "about": "(Nature Communications, 2024)", "key": {"[1]": {"biological_target": "T1, VanAB (Pseudomonas putida, UniProt Q88GI6)", "T1 sequence (Q88GI6 1-355)": "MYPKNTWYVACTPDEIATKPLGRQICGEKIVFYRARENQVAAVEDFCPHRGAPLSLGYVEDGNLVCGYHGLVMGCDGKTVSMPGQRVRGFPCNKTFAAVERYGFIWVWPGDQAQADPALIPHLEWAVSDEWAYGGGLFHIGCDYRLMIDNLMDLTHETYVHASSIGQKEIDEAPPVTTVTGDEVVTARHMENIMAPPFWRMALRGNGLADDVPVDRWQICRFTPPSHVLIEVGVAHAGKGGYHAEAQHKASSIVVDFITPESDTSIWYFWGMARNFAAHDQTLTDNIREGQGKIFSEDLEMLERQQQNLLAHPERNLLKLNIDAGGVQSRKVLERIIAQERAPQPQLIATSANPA", "T1 sequence (Q88GI5 1-316 partner)": "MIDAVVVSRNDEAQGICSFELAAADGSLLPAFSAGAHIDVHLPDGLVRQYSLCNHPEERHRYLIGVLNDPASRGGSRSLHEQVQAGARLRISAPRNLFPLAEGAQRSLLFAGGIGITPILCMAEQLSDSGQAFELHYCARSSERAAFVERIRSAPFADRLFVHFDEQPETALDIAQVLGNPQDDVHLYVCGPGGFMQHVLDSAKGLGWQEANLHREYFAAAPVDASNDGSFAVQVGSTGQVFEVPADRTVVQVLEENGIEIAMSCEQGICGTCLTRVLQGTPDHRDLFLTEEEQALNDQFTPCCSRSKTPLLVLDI", "assay": "whole-cell consumption", "assay_type": "cell-based", "conditions": "R. eutropha H16 expressing vanAB, sole carbon source, 30 °C"}, "[2]": {"biological_target": "LigM (Sphingobium sp. SYK-6, UniProt G2IQS7)", "sequence (G2IQS7 whole entry)": "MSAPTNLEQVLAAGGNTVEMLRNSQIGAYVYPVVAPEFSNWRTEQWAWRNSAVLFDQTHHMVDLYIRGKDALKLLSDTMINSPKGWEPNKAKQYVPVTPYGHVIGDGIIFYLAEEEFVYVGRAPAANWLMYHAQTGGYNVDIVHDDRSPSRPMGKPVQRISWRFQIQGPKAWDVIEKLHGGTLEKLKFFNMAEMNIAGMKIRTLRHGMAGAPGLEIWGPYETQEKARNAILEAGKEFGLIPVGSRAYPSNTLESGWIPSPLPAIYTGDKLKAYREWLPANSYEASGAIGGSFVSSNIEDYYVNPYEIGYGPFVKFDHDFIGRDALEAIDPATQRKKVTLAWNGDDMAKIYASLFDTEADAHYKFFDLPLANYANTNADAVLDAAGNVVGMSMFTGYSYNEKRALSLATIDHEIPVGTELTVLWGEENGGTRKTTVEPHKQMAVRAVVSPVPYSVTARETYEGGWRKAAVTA", "assay": "whole-cell consumption", "assay_type": "cell-based", "conditions": "tetrahydrofolate cofactor; with ligH and metF in R. eutropha H16"}}, "data": [{"smiles": "COc1cc(C(=O)O)ccc1O", "note": "[vanillic acid]", "values": [{"measurement": "whole-cell consumption (HPLC) and growth", "setting": "[1]", "value": "expression of vanAB could enable the strain to use vanillic acid"}, {"measurement": "whole-cell consumption (HPLC) and growth", "setting": "[2]", "value": "the demethylation process of the optimized LigM system is still the main rate-limiting step"}]}]}
